“Also recorded” adds a separate entry of the source. No end group written: not given here.
What was measured:
mitochondrial membranes = settings: 10 μM; cited from earlier work
[1] = tested on: cultured MDA-MB-435 tumor cells; assay: Internalization and subcellular localization in cultured MDA-MB-435 cells; format: cell-based, human; settings: one to five hours at 37° C., FIG. 2
Protocol: A fluorescein-conjugated CGNKRTRGC (SEQ ID NO: 1) peptide was utilized to further analyze cellular internalization and subcellular localization. […] Natl. Acad. Sci. 97:13003 (2000). The fluorescein-conjugated peptides were incubated with cultured MDA-MB-435 tumor cells for one to five hours at 37° C. […] Cultured 435 cells also internalized the CGNKRTRGC (SEQ ID NO: 1) phage, although the phage accumulated in the cytoplasm of the cells.

[2] = tested on: MDA-MB-435 tumor lymphatic vasculature; assay: Localization in 435 tumors after tail vein injection, with blood vessel and lymphatic marker staining; format: in vivo, nude mice
Protocol: Localization of phage displaying SEQ ID NO: 1 was analyzed with anti-T7 phage antibody following intravenous injection of CGNKRTRGC (SEQ ID NO: 1)-displaying phage into the tail vein of nude mice carrying an MDA-MB-435 tumor. […] Similar results were obtained by a phage overlay assay in which phage were added onto frozen tissue sections, rather than being injected into the mice.
An anti-T7 antiserum was prepared by immunizing New Zealand white rabbits with 10^10 pfu of T7 nonrecombinant phage (Novagen). The initial immunization performed in complete Freund's Adjuvant, while boosters were administered in incomplete Freund's Adjuvant. The antibody titer was estimated by ELISA, and the antiserum was absorbed against BLT5615 bacterial and mouse liver lysates. Phage were detected using anti-T7 phage antiserum (1:1000 dilution) and goat anti-rabbit secondary antibody conjugated to fluorescein.
(§1) Detection of fluorescent peptides and biotin-conjugated tomato lectin was performed as follows. Fluorescein-conjugated peptide CGNKRTRGC (SEQ ID NO: 1) was prepared as described above. The peptide (100 μg in 200 μl of PBS) was injected into the tail vein of mice bearing MDA-MB-435 breast carcinoma tumors. After 10 minutes, biotin-conjugated lycopersicon esculentum (tomato) lectin (100 μg in 200 μl of PBS; Vector; Burlingame, Calif.) was also injected into the tail vein. After 5 minutes, the mouse was perfused through the heart with 4% paraformaldehyde. Tissues were removed and frozen in O.C.T. embedding medium (Tissue-Tek; Torrence, Calif.). Blood vessels were visualized by detecting the tomato lectin with streptavidin-conjugated Alexa 594 (Molecular Probes; Eugene, Oreg.). Green staining indicated the presence of peptide SEQ ID NO: 1, while red staining indicated the presence of tomato lectin.
MDA-MB-435 breast carcinoma tumors contain lymphatic vessels that are positive for markers of lymphatic endothelial cells. To determine whether CGNKRTRGC (SEQ ID NO: 1) homed to the 435 tumor lymphatics, tumor sections were stained with the lymphatic markers VEGFR-3 and LYVE-1. Lymphatic vessels were visualized using a rat anti-mouse VEGFR-3 antibody or with rabbit anti-LYVE-1 antibody produced as described below.
LYVE-1 antibody was produced by immunizing New Zealand White rabbits with a peptide encoding the 19 most C-terminal residues of mouse LYVE-1 (Prevo et al., J. Biol. Chem. 276:19420 (2001)) conjugated to keyhole limpet hemocyanin (KLH; Pierce; Iselin, N.J.). The initial immunization was done in complete Freund's Adjuvant, with boosters performed in incomplete Freund's Adjuvant. Specific antibody was obtained following affinity purification with the peptide coupled to Sulfolink Gel (Pierce). Tissues were processed for fifteen minutes following injection with fluorescein-conjugated peptide using rat anti-mouse anti-VEGFR-3, and rabbit anti-LYVE-1. The anti-LYVE-1 antibody was used at a 1:500 dilution on cryo sections, followed by detection with goat anti-rabbit secondary antibody conjugated to Alexa 594 (Molecular Probes).

cultured KRIB cells = assay: Phage binding and peptide internalization in cultured KRIB cells; format: cell-based
[3] = tested on: primary MDA-MB-435 breast carcinoma tumor cell suspensions; assay: Ex vivo phage binding to primary 435 tumor cell suspensions; parameters: species or system human; settings: synthetic peptide added
Protocol: Selected phage were enriched 30-fold relative to nonrecombinant T7 phage in the tumor. Forty-eight individual clones were randomly chosen from the in vivo selected pool, and the inserts sequenced as described below. Individual clones were assayed for the ability to bind cultured 435 cells as well as cell suspensions prepared from 435 tumors.
Xenografts, tumor cell suspensions and ex vivo selections were performed essentially as follows. Nude Balb/c mice were subcutaneously injected with 1×10^6 MDA-MB-435 tumor cells to generate breast carcinoma xenografts. Human MDA-MB-435 breast carcinoma xenograft tumors were harvested 9 to 12 weeks after implantation, and tumor cell suspensions prepared using collagenase (0.5 mg/ml, Sigma).
The suspension was subjected to serial washes with 1% BSA in DME to remove unbound phage. Blood vessel endothelial cells were depleted from the tumor cell mixture using magnetic beads (Dynal; Lake Success, N.Y.) coated with anti-mouse CD31 antibody (MEC 13.3; Pharminogen; San Diego, Calif.) according to the manufacturer's instructions. Phage bound to the CD31-negative cell population were rescued by adding bacteria, and the rescued phage titered and amplified in liquid culture.

normal tissues = assay: Localization of fluorescent peptide in normal tissues after intravenous injection; format: in vivo, mouse
Protocol: Several normal tissues also were studied for localization of the CGNKRTRGC (SEQ ID NO: 1) peptide.
as §1

[4] = tested on: Cultured MDA-MB-435 cells; assay: Trypan blue cytotoxicity in cultured MDA-MB-435 cells; format: cell-based; settings: FIG. 7
Protocol: Cultured MDA-MB-435 cells were incubated with a control peptide (CGEKRTRGC; SEQ ID NO: 3) or with CGNKRTRGC (SEQ ID NO: 1) at 37° C. for 1, 2 or 4 hours. After staining with trypan blue, which is taken up by cells that are dead or dying, the total number of cells were counted, and the percentage of trypan blue stained cells determined. […] In particular, after four hours incubation, at least 7-fold greater trypan blue uptake was evident in cell cultures incubated with peptide SEQ ID NO: 1 as compared to cultures incubated with control peptide.

[5] = tested on: MDA-MB-435 human breast carcinoma cell xenografts; assay: Tumor treatment study; format: in vivo, nude mice; settings: 67 nmol intravenously twice a week; after about two weeks of treatment; FIG. 8; listed as peptide SEQ ID NO: 1
Protocol: A tumor treatment study was performed using MDA-MB-435 human breast carcinoma cell xenografts prepared by subcutaneously injecting 1×10^6 cells in 200 μl PBS into nude mice. Mice (five per group) were treated intravenously twice a week with 67 nmol CGNKRTRGC peptide (SEQ ID NO: 1) or with PBS starting four weeks after tumor implantation. Tumor volumes were measured once a week for four weeks.

Row | Substance | mitochondrial swelling (mitochondrial membranes) | uptake and subcellular localization of fluorescein-conjugated peptide ([1]; listed as fluorescein-conjugated SEQ ID NO: 1) | uptake and subcellular localization of fluorescein-conjugated peptide ([1]; listed as fluorescein-labeled peptide SEQ ID NO: 1) | co-localization with lymphatic markers VEGFR-3 and LYVE-1 ([2]; 435 tumor tissue, FIG. 5) | internalization and nuclear transport in vivo ([2]; 435 tumor tissue, FIG. 5) | internalization and nuclear transport in vivo ([2]; 435 tumor tissue, FIG. 5, listed as fluorescein-conjugated SEQ ID NO:1) | internalization and nuclear transport in vivo ([2]; 435 tumor tissue, FIG. 5, listed as fluorescein-conjugated peptide (SEQ ID NO: 1)) | co-localization with blood vessels labeled with biotin-conjugated tomato lectin ([2]; FIGS. 3A-C) | blood vessel markers Meca-32 and CD31 on the vessels in which the substance localized ([2]; mouse, in vivo) | localization within 435 tumors after tail vein injection ([2]; mouse, in vivo) | internalization of fluorescein-labeled peptide by cultured KRIB cells (cultured KRIB cells) | inhibition of binding of CGNKRTRGC phage by synthetic peptide [3] | localization in normal tissues (normal tissues) | trypan blue uptake relative to cultures incubated with control peptide ([4]; four hours incubation, 37° C.) | cytotoxic effect compared to control peptide SEQ ID NO: 3 ([4]; later time points of 1, 2 or 4 hours, listed as peptide SEQ ID NO: 1) | co-localization with macrophage marker F4/80 ([2]; VEGFR-3 positive single cells in tumor) | mean tumor volume compared to mice administered PBS alone [5]
1 | D(KLAKLAK)2 | marked mitochondrial swelling |  |  |  |  |  |  |  |  |  |  |  |  |  |  |  | 
2 | fluorescein-conjugated CGNKRTRGC (SEQ ID NO: 1) peptide: fluorescein-conjugated CGNKRTRGC peptide (cysteine pairing not given here; also: fluorescein conjugate, site not given here) |  | internalized and translocated to the nucleus | internalized | co-localized | internalized and transported into nuclei | internalized and transported into nuclei | accumulated in the nuclei lining the vessel-like structures | notable lack of co-localization | negative | localized in vessel-like structures and in individual cells within the tumor | internalized |  |  |  |  |  | 
3 | CGNKRTRGC [CGNKRTRGC (SEQ ID NO: 1) peptide] |  |  |  |  |  |  |  |  |  | accumulated in VEGFR-3 positive single cells within the tumor |  | inhibited binding | Fluorescence was seen only in the kidney tubuli | at least 7 fold | significantly enhanced cytotoxic effect; also recorded: significantly enhanced cytotoxicity | lack of co-localization | at least several fold less; also recorded: slowed significantly
